The supplement of paper PMC11962398

Tests used:
BI-2493 [1] = compound: T1, C[C@H]1CNCCN1c1nccc(-c2noc3c2CCC[C@@]32CCCc3sc(N)c(C#N)c32)n1 [BI-2493]; details: 5 days
Description: (§1)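 PRISM pooled barcoded cancer cell line viability screen (Broad Institute) with BI-2493 at 8 doses in threefold dilutions from 0.00457 to 10 µmol/L, 5-day treatment; curves fitted per cell line. IC50 is undefined (placeholder) for resistant lines. AUC is capped at 1, and sensitivity is reported as 1 − AUC.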

BI-2493 [2] = compound: T1, BI-2493; experiment: 1 - AUC of viability dose-response curve (sensitivity) (fraction); higher = more sensitive; details: 5 days
Description: as §1

| Test System | IC50 of cell viability (BI-2493 [1]) [µM] | 1 - AUC of viability dose-response curve (BI-2493 [2]) |
| --- | --- | --- |
| HCSC1_CERVIX | 9.79 | 0.0229 |
| HCT116_LARGE_INTESTINE | 4.75 | 0.167 |
| HDMB03_CENTRAL_NERVOUS_SYSTEM | 4.5 | 0.129 |
| HDMYZ_HAEMATOPOIETIC_AND_LYMPHOID_TISSUE | 9.62 | 0.00919 |
| HDQP1_BREAST | 8.25 | 0.0753 |
| HEC1A_ENDOMETRIUM | 3.64 | 0.136 |
| HEC1B_ENDOMETRIUM | 3.94 | 0.175 |
| HEC1_ENDOMETRIUM | 5.02 | 0.131 |
| HEC6_ENDOMETRIUM | 8.15 | 0.0397 |
| HEC59_ENDOMETRIUM | 9.3 | 0.025 |
| HEC108_ENDOMETRIUM | 5.68 | 0.123 |
| HEC116_ENDOMETRIUM | 9.57 | 0.012 |
| HEC151_ENDOMETRIUM | 5.89 | 0.0839 |
| HEC251_ENDOMETRIUM | 3.15 | 0.282 |
| HEC265_ENDOMETRIUM | 3.76 | 0.109 |
| HEL9217_HAEMATOPOIETIC_AND_LYMPHOID_TISSUE | 4.27 | 0.173 |
| HEL_HAEMATOPOIETIC_AND_LYMPHOID_TISSUE | 4.89 | 0.255 |
| HEP3B217_LIVER | 6.95 | 0.0726 |
| HEPG2_LIVER | 4.13 | 0.0929 |
| HEYA8_OVARY | 3.57 | 0.117 |
| HGC27_STOMACH | 3.92 | 0.158 |
| HH_HAEMATOPOIETIC_AND_LYMPHOID_TISSUE | 5.02 | 0.0743 |
| HKA1_SKIN | 4 | 0.111 |
| HKGZCC_BILIARY_TRACT | 1.41 | 0.281 |
| HL60_HAEMATOPOIETIC_AND_LYMPHOID_TISSUE | > 10 | 0.089 |
| HLF_LIVER | 7.5 | 0.0644 |

| Test System | IC50 of cell viability (BI-2493 [1]) [µM] | 1 - AUC of viability dose-response curve (BI-2493 [2]) |
| --- | --- | --- |
| HMC18_BREAST | 4.86 | 0.15 |
| HOS_BONE | 7.39 | 0.0734 |
| HOTHC_THYROID | 9.68 | 0.00917 |
| HPAC_PANCREAS | 1.1 | 0.312 |
| HPAFII_PANCREAS | 0.582 | 0.396 |
| HPBALL_HAEMATOPOIETIC_AND_LYMPHOID_TISSUE | 4.23 | 0.0862 |
| HS294T_SKIN | 5.34 | 0.0895 |
| HS611T_HAEMATOPOIETIC_AND_LYMPHOID_TISSUE | > 10 | < 0 |
| HS683_CENTRAL_NERVOUS_SYSTEM | 9.89 | 0.0105 |
| HS729_SOFT_TISSUE | 8.7 | 0.101 |
| HS766T_PANCREAS | 6.84 | 0.108 |
| HS852T_SKIN | 9.99 | 0.00841 |
| HS939T_SKIN | 8.03 | 0.0542 |
| HS944T_SKIN | 3.82 | 0.103 |
| HSC1_SKIN | 4.81 | 0.111 |
| HSC2_UPPER_AERODIGESTIVE_TRACT | 3.64 | 0.169 |
| HSC3_UPPER_AERODIGESTIVE_TRACT | 5.44 | 0.138 |
| HSC5_SKIN | 5.05 | 0.126 |
| HSKTC_OVARY | 4.41 | 0.166 |
| HT3_CERVIX | 5.97 | 0.17 |
| HT29_LARGE_INTESTINE | 5.08 | 0.15 |
| HT55_LARGE_INTESTINE | 4.03 | 0.195 |
| HT115_LARGE_INTESTINE | 2.29 | 0.229 |
| HT144_SKIN | 5.71 | 0.091 |
| HT1080_SOFT_TISSUE | 3.19 | 0.209 |
| HT1197_URINARY_TRACT | 4.69 | 0.0777 |

| Test System | IC50 of cell viability (BI-2493 [1]) [µM] | 1 - AUC of viability dose-response curve (BI-2493 [2]) |
| --- | --- | --- |
| HT1376_URINARY_TRACT | 5.68 | 0.175 |
| HTMMT_ENDOMETRIUM | 5.79 | 0.0985 |
| HT_HAEMATOPOIETIC_AND_LYMPHOID_TISSUE | 6.79 | 0.104 |
| HUG1N_STOMACH | 0.544 | 0.393 |
| HUH1_LIVER | 4.85 | 0.0866 |
| HUH6_LIVER | 6.78 | 0.0714 |
| HUH7_LIVER | 8.94 | 0.0355 |
| HUH28_BILIARY_TRACT | 9.21 | 0.0149 |
| HUO9_BONE | 9.56 | 0.0106 |
| HUPT3_PANCREAS | 5.16 | 0.182 |
| HUPT4_PANCREAS | 3.9 | 0.147 |
| IALM_LUNG | 1.56 | 0.317 |
| ICC4_BILIARY_TRACT | 3.75 | 0.184 |
| ICC8_BILIARY_TRACT | 7.67 | 0.185 |
| ICC9_BILIARY_TRACT | 4.52 | 0.225 |
| ICC10_BILIARY_TRACT | 9.23 | 0.0142 |
| ICC12_BILIARY_TRACT | 4.21 | 0.0946 |
| ICC137_BILIARY_TRACT | 7.76 | 0.116 |
| IGR1_SKIN | 7.02 | 0.0813 |
| IGR37_SKIN | 8.82 | 0.111 |
| IGR39_SKIN | 5.87 | 0.0609 |
| IGROV1_OVARY | 8.03 | 0.205 |
| IHH4_THYROID | 7.16 | 0.0625 |
| IM95_STOMACH | 4.31 | 0.152 |
| IPC298_SKIN | 4.47 | 0.0978 |
